Data as given in patent US20150018305A1, “SIRTUIN INDUCER, TISSUE REPAIRING AGENT, HEPATOCYTE GROWTH FACTOR INDUCER, TISSUE HOMEOSTASIS MAINTENANCE AGENT, AND TLR4 AGONIST, HAVING HYALURONIC ACID FRAGMENT AS ACTIVE INGREDIENT” (HYALURONAN RESEARCH INSTITUTE, INC., priority 2012, published 2015).

Experiments:
[1] = test system: human large intestine epithelial cells (HT29 cells); assay: Hydrogen peroxide induced aging of human large intestine epithelial cells, MTS assay (Test Examples 16-18); assay type: cell-based; details: for suppression of cellular aging (MTS value, OD 490 nm): hydrogen peroxide 10 μM 15 min
Procedure: Human large intestine epithelial cells (HT29 cells) were experienced cellular aging (decline in mitochondrial activity due to injury, or a drop in the MTS value once cell death occurs) due to stimulation by the hydrogen peroxide when treated with hydrogen peroxide, and it was investigated whether this process is affected by treatment with the hyaluronic acid fragment. Specifically, the following test was performed.
Using a DMEM culture medium (made by Wako Pure Chemical Industries, Ltd.), human large intestine epithelial cells (HT29 cells) were cultured by usual methods at 37° C. under 5% CO2. Hydrogen peroxide was added to the culture medium to a final concentration of 10 μM to bring about stimulation for a 15-minute period, and the culture broth was then transferred to DMEM culture medium containing no hyaluronic acid fragments; to DMEM culture medium containing hyaluronic acid fragment (4mer) in a final concentration of 100 ng/ml; or to DMEM culture medium containing the hyaluronic acid fragment (4mer) plus TLR4/MD2 in a final concentration of 10 μg/ml, and cultured for 3 hours.
After 3 hours had passed, an MTS assay was performed. On the basis of the action, in which MTS is converted to formazan by dehydrogenation in the mitochondria of the cell, OD 490 nm was measured to measure mitochondrial function.
Using hyaluronic acid fragment (4mer), hyaluronic acid fragment (L4mer) and hyaluronic acid fragment (L3mer) as test substances, tests similar to those of Test Example 16 were performed, except that the culture time following transfer to the culture medium containing the test substance was one hour.
Tests similar to those of Test Example 16 were performed, except for using hyaluronic acid fragment (L4mer), and hyaluronic acid fragment (L3mer) as test substances.

[2] = test system: sirtuin enzymatic activity (sirt1 enzymatic activity); assay: Sirtuin enzymatic activity in cell solution of human epidermal keratinocytes, CycLex SIRT1/Sir2 Deacetylase Fluorometric Assay Kit (Test Example 2); assay type: cell-based; details: 10 ng/ml final concentration; cell crude extract
Procedure: Human epidermal keratinocytes were treated in the same manner as in Test Example 1, except that the final concentration of the hyaluronic acid fragment was 10 ng/ml, the size thereof being four sugar units (4mer), six sugar units (6mer), or 10 sugar units (10mer), while measuring the sirtuin enzymatic activity (sirt1 enzymatic activity) in the cell solution thereof. For purposes of comparison, 10 kDa or 900 kDa hyaluronic acid, and resveratrol, a known sirtuin activator, were likewise tested at 10 ng/ml final concentration. A human sirtuin recombinant protein (recombinant human sirt1) produced through genetic recombination techniques was used as a substance for verification of the measurement system. Sirtuin enzymatic activity in the cell crude extract was measured with the CycLex SIRT1/Sir2 Deacetylase Fluorometric Assay Kit (trade name of CycLex), following the protocol of the kit.

Structure (SMILES)	suppression of cellular aging (MTS value, OD 490 nm) ([1]; then 100 ng/ml for 3 hours)	suppression of cellular aging (MTS value, OD 490 nm) ([1]; then test substance for one hour)	suppression of cellular aging with TLR4/MD2 added (MTS) ([1]; hydrogen peroxide 10 μM, 100 ng/ml plus TLR4/MD2 10 μg/ml, 3 hours)	sirtuin enzymatic activity (sirt1 enzymatic activity) compared with negative control [2]
CC(=O)NC1C(O[C@@H]2OC(C(=O)O)[C@@H](O[C@@H]3OC(CO)[C@@H](O)C(O[C@@H]4OC(C(=O)O)[C@@H](O)C(O)C4O)C3NC(C)=O)C(O)C2O)[C@H](O)C(CO)O[C@H]1OCCCN=[N+]=[N-] (stereo partly shown) [L4mer]	showed effect in suppressing cellular aging	showed effect in suppressing cellular aging	inhibited by the addition of TLR4/MD2	
Oc1ccc(C=Cc2cc(O)cc(O)c2)cc1 [resveratrol, reference compound]				No change was observed
